From ChEMBL document CHEMBL1127914, “Pseudopeptide inhibitors of aminopeptidases containing the [CH(CN)NH] surrogate as a transition-state MIMIC” (Bioorg Med Chem Lett, 1994) come the findings set out here.

Assay [1] deals with T1, Aminopeptidase B (Mus musculus, UniProt Q8VCT3).
T1 sequence (Q8VCT3 whole entry): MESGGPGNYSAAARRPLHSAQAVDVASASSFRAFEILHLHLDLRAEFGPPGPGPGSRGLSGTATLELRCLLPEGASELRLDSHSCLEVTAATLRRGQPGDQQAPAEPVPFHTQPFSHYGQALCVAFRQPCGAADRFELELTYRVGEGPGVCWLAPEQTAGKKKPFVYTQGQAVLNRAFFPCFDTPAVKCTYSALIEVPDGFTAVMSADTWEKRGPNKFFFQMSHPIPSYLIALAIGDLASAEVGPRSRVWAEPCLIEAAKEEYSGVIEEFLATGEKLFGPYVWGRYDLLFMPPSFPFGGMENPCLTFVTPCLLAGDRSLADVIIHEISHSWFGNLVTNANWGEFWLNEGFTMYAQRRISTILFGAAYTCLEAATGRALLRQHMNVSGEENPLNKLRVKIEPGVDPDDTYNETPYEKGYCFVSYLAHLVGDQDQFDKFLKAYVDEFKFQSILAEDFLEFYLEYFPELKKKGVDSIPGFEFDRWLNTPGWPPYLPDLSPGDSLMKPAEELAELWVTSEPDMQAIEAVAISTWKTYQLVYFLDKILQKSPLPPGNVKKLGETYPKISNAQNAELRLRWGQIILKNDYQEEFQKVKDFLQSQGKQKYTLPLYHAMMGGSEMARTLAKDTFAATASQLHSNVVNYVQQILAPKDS
Briefly: Inhibition of Aminopeptidase B in murine L-cells by Aoyagi method.

For assay [2], the target named is T2, Aminopeptidase N (Homo sapiens, UniProt P15144). The experiment in a line: Inhibition of Aminopeptidase M.
T2 sequence (P15144 whole entry): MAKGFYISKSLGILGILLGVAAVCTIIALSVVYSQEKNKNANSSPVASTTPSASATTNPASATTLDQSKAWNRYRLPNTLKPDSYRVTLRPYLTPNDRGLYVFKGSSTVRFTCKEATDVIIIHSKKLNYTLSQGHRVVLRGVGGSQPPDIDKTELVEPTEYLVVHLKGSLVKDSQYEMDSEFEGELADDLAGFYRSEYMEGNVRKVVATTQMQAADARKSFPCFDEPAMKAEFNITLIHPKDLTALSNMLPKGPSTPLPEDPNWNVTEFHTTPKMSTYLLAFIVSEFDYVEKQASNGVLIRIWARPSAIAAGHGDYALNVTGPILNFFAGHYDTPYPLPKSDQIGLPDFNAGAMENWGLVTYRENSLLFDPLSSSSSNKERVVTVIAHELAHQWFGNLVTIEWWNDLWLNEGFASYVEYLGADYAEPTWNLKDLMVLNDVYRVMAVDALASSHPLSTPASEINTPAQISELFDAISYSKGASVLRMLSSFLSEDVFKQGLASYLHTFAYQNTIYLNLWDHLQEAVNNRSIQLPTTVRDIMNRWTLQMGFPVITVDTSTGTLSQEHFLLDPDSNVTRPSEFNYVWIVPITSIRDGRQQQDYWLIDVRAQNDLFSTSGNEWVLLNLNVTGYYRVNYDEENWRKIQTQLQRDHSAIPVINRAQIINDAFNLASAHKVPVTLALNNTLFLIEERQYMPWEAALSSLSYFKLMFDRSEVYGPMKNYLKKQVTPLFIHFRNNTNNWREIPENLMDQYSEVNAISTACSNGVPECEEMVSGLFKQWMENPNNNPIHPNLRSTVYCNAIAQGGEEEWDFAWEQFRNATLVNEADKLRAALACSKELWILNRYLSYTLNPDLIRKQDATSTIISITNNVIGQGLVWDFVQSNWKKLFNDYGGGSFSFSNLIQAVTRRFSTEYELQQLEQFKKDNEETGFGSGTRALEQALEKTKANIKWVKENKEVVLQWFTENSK
Assay [3] deals with T1, Aminopeptidase B. The experiment in a line: Concentration required for inhibitory potency against Aminopeptidase B in murine L-cells by aoyagi method using L-lysine-2-naphthylamide hydrochloride as substrate (0.5mM, Km=0.9*10e-4 M).
The target in assay [4] is T2, Aminopeptidase N. Briefly: Concentration required for inhibitory potency on Aminopeptidase M using L-leucine-2-naphthylamide hydrochloride as substrate(0.5 mM, Km=0.6*10e-4 M).

Residues, ends and D or L forms follow the SMILES beside them.

On Aminopeptidase B [1], `COC(=O)[C@H](CC(C)C)NC(C#N)[C@@H](N)Cc1ccccc1` (some centres not stated) yielded an IC50 of 0.05 mM.

Regarding `COC(=O)[C@H](Cc1ccccc1)N[C@H](C#N)[C@@H](N)Cc1ccccc1`, the IC50 on Aminopeptidase B [1] amounted to 0.293 mM.

The compound `COC(=O)[C@@H]1CCCN1C(=O)[C@H](CC(C)C)N[C@@H](C#N)[C@@H](N)Cc1ccccc1` came in with an IC50 against Aminopeptidase B [1] of 0.028 mM.

For the compound `COC(=O)[C@@H](NC(C#N)[C@H](Cc1ccccc1)NC(=O)OC(C)(C)C)C(C)C` (some centres not stated), the IC50 against Aminopeptidase B [1] and against Aminopeptidase N [2] was 1 mM each time.

In the case of `COC(=O)[C@@H](NC(C#N)[C@@H](N)Cc1ccccc1)C(C)C` (some centres not stated), at Aminopeptidase B [1], half-maximal inhibition (IC50) was put at 0.036 mM.

In the case of `COC(=O)[C@H](CCCCN)NC(C#N)[C@@H](N)Cc1ccccc1` (some centres not stated), the IC50 against Aminopeptidase B [1] was found to be 0.044 mM.

The compound `COC(=O)[C@H](Cc1ccccc1)N[C@@H](C#N)[C@@H](N)Cc1ccccc1` yielded an IC50 at Aminopeptidase B [1] of 0.221 mM. This IC50 is about 5-fold higher than that of the compound before.

As for `CC(C)C[C@H](NC(=O)[C@@H](N)Cc1ccccc1)C(=O)O` (H-Phe-Leu-OH), the IC50 against Aminopeptidase B [1] and against Aminopeptidase N [2] was 1 mM in each case.

For the compound `COC(=O)[C@@H]1CCCN1C(=O)[C@H](CC(C)C)NC(=O)[C@@H](N)Cc1ccccc1` (H-Phe-Leu-Pro-OMe), the IC50 against Aminopeptidase B [1] was found to be 0.824 mM; on Aminopeptidase N [2], 0.793 mM.

For the compound `COC(=O)[C@H](CC(C)C)NC(C#N)[C@H](Cc1ccccc1)NC(=O)OC(C)(C)C` (mixture of isomers), the IC50 at Aminopeptidase B [1] and against Aminopeptidase N [2] was 1 mM each time.

`COC(=O)[C@H](CCCCN)NC(C#N)[C@H](Cc1ccccc1)NC(=O)OC(C)(C)C` (mixture of isomers): the IC50 on Aminopeptidase B [1] and against Aminopeptidase N [2] was 1 mM each time.

Regarding `COC(=O)C1CCCN1C(=O)[C@H](CC(C)C)NC(C(N)=O)[C@@H](N)Cc1ccccc1` (single isomer, unassigned) [listing 1 of 2 here], the IC50 on Aminopeptidase B [1] and against Aminopeptidase N [2] was 1 mM each time.

As to `COC(=O)C1CCCN1C(=O)[C@H](CC(C)C)NC(C(N)=O)[C@@H](N)Cc1ccccc1` (single isomer, unassigned) [listing 2 of 2 here], the IC50 against Aminopeptidase B [3] was 1 mM; against Aminopeptidase N [4], 0.783 mM.

In the case of `COC(=O)[C@H](CC(C)C)NC(C(N)=O)[C@@H](N)Cc1ccccc1` (single isomer, unassigned), the half-inhibitory concentration (IC50) against Aminopeptidase B [1] and against Aminopeptidase N [2] was 1 mM throughout.

In turn, `COC(=O)C1CCCN1C(=O)[C@H](CC(C)C)NC(C#N)[C@@H](N)Cc1ccccc1` (single isomer, unassigned) gave a concentration for half-maximal inhibition (IC50) at Aminopeptidase B [1] of 0.014 mM.

In the case of `COC(=O)C1CCCN1C(=O)[C@H](CC(C)C)NC(C#N)[C@H](Cc1ccccc1)NC(=O)OC(C)(C)C` (single isomer, unassigned; form 1), the IC50 against Aminopeptidase B [1] and on Aminopeptidase N [2] was 1 mM throughout.

In the case of `COC(=O)[C@H](Cc1ccccc1)NC(C#N)[C@H](Cc1ccccc1)NC(=O)OC(C)(C)C` (single isomer, unassigned; form 1), the IC50 at Aminopeptidase B [1] and against Aminopeptidase N [2] was 1 mM throughout.

Regarding `COC(=O)C1CCCN1C(=O)[C@H](CC(C)C)NC(C#N)[C@H](Cc1ccccc1)NC(=O)OC(C)(C)C` (single isomer, unassigned; form 2), the IC50 on Aminopeptidase B [1] and against Aminopeptidase N [2] was 1 mM in each case.

Take `COC(=O)[C@H](Cc1ccccc1)NC(C#N)[C@H](Cc1ccccc1)NC(=O)OC(C)(C)C` (single isomer, unassigned; form 2): the IC50 against Aminopeptidase B [1] and against Aminopeptidase N [2] was 1 mM in each case.

As for `CC(C)C[C@H](NC(=O)[C@@H](O)[C@H](N)Cc1ccccc1)C(=O)O` [UBENIMEX], at Aminopeptidase B [1], the midpoint of inhibition, the IC50, lay at 0.006 mM.

One may read the IC50 as the midpoint of a concentration-inhibition curve. Low values mean greater potency, high ones weaker potency.
